# The source made the active and inactive calls.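 How the source made its calls: active means fitted curve rises past 40% activation at or below the highest valid tested dose; inconclusive means flat fit between 30% and 70%, or poor curve fit; inactive means the rest, including signal falling instead of rising.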
# Biological target: Luciferin 4-monooxygenase (Photinus pyralis) (UniProt P08659)
# Experiment: firefly luciferase activators or modifiers, dose response, counter-screen for NLG project, biochemical, CellTiter-Glo luminescence, dry powder samples (AID 720562)
# Conditions: purified luciferase, 1 h
# Sequence of Luciferin 4-monooxygenase (Photinus pyralis) (P08659 whole entry, looked up): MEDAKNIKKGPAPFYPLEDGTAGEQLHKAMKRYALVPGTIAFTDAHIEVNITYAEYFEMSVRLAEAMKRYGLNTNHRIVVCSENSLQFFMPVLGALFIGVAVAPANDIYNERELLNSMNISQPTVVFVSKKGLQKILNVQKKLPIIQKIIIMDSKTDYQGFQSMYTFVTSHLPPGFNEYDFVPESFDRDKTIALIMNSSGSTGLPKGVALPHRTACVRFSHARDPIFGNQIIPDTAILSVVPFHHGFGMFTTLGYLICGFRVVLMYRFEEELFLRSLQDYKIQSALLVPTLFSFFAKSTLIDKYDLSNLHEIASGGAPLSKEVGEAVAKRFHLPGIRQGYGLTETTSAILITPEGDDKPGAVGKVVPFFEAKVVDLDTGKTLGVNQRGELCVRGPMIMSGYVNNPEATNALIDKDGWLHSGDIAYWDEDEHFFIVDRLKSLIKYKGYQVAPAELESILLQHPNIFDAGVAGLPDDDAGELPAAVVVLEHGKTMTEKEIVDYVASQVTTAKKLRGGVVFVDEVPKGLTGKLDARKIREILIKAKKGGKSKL
SMILES,AC40,"luminescence change, positive = activation (at 30 µM (top of the series))",other results
CCN(CC)CCOc1ccc2c(c1)C(=NNC(=O)c1ccccn1)c1cc(OCCN(CC)CC)ccc1-2,> 30 µM (inactive),–,–
COc1ccccc1OCC(=O)NNC(=O)c1ccoc1C,–,-17.6% (inactive),–
COC(=O)c1cn(C(=O)c2ccc(OC)cc2)c2ccccc12,12.5 µM,–,–
CCN(CC)CCCNc1nc2cc(OC)c(OC)cc2c2nc(-c3ccccc3)nn12,–,-10.1% (inactive),–
Cc1ccc(C(=O)c2cc([N+](=O)[O-])ccc2N2CCOCC2)cc1C,–,19.8% (inactive),–
CCCOC(=O)c1[nH]c2c(c1C)C(=O)CC(c1cccs1)C2 (configuration not stated),10 µM,–,–
CCOC(=O)c1ccc(Oc2cc(C)nc(SC)n2)cc1,–,16.2% (inactive),–
Cc1ccc(CCC(=O)Nc2ncc(Cc3cc(Cl)ccc3Cl)s2)o1,–,-24.3% (inactive),–
CCN(CC)CCC(=O)Nc1cccc2c1C(=O)c1ccccc1C2=O,14.7 µM,–,–
COc1cc(Nc2c3c(nc4ccccc24)CCCC3)cc(OC)c1OC,–,-14.9% (inactive),–
Cc1cnc(NC(=O)c2cc(S(=O)(=O)N(C)C)ccc2N2CCCC2)s1,–,8.11% (inactive),–
C/C(=N\NC(=O)c1c([N+](=O)[O-])c(C)nn1C)c1ccc(NC(=O)C2CCCC2)cc1,–,-2.7% (inactive),–
CCOC(=O)COc1cccc2c(=O)n(CC(=O)NCc3ccccc3)ccc12,–,-4.73% (inactive),–
CC(=O)c1cccc(NC(=O)CSc2ncc(C(=O)Nc3ccccc3)c(=O)n2C)c1,–,-7.43% (inactive),–
CC(=O)N[C@H]1[C@@H](O[C@@H]2OC(C[C@@H](O)C3O[C@@H](n4ccc(=O)[nH]c4=O)[C@H](O)[C@@H]3O)[C@H](O)[C@H](O)[C@H]2NC(=O)/C=C/CCCCCCCCCCC(C)C)O[C@H](CO)[C@@H](O)[C@@H]1O (some centres not stated),13.1 µM,–,–
O=C(N/N=C/c1ccc(Cl)cc1)c1sccc1OCc1ccc(F)cc1,> 30 µM (inactive),–,–
Cc1cc(C)cc(C(=O)N2CC(=O)Nc3ccccc32)c1,–,-9.46% (inactive),–
Cc1ccc(/C=N/NC(=O)C2COc3ccccc3O2)s1 (configuration not stated),> 30 µM (inactive),–,–
O=C1CCN(Cc2ccccc2)c2cc3ccccc3cc21,–,–,"luminescence change, positive = activation (at 7.5 µM (top of the series)): 10.8% (inactive)"
Cc1cc(C)nc(/N=C(\N)Nc2ccc(OCc3ccccc3)cc2)n1,–,36.9% (inactive),–
COc1cc(C(=O)NCCOc2cc(C)cc(C)c2)cc(OC)c1OC,24.5 µM,–,–
Cc1cccc(C)c1OCCNC(=O)C(=O)NCc1ccco1,–,-39.9% (inactive),–
Brc1ccc(CSc2nnc(-c3ccccc3)o2)cc1,–,21.6% (inactive),–
COc1ccccc1CSc1nnc(-c2ccccc2)o1,–,19.8% (inactive),–

SMILES,AC40,"luminescence change, positive = activation (at 30 µM (top of the series))",other results
CCCCOc1ccccc1C1CC(=O)NC2=C1C(=O)CCC2 (configuration not stated),–,-27% (inactive),–
CCC1=Nc2cc(C(=O)NCCCOC)ccc2Sc2ccccc21,–,-11.5% (inactive),–
O=C1CCNc2cc3ccccc3cc21,28.2 µM,–,–
CC(=O)c1ccc(Oc2cc(C)nc(-n3nc(C)cc3C)n2)cc1,–,-10.8% (inactive),–
O=C(Cc1ccccc1)c1nnc(-c2ccccc2)o1,> 30 µM (inactive),–,–
CCOc1ccc(NC(=O)c2cc(OC)nc3ccccc23)cc1,–,-0.676% (inactive),–
Cc1cc(=O)[nH]c(N/N=C/c2cc(C)n(CC(F)(F)F)c2C)n1,–,36% (inactive),–
COc1cc(-c2nnc(SCC3(c4ccc(Br)cc4)OCCO3)o2)cc(OC)c1OC,> 30 µM (inactive),–,–
COc1ccc2c(COC(=O)c3cccc(S(=O)(=O)NCC(C)C)c3)cc(=O)oc2c1,1.49 µM,–,–
CCCNS(=O)(=O)c1cccc(C(=O)OCc2cc(=O)oc3cc(OC)ccc23)c1,6.81 µM,–,–
COc1ccc(NC(=O)C(=O)c2cn(CC(=O)N3CCCC3)c3ccccc23)cc1,–,-20.3% (inactive),–
COc1ccc(CSc2nnc(-c3ccccc3)o2)cc1,> 30 µM (inactive),–,–
CC(=O)N1CCC(=O)c2cc3ccccc3cc21,4.65 µM,–,–
CCn1c2ccccc2c2cc(NC(=O)c3cc(OC)c(OC)c(OC)c3)ccc21,–,–,"luminescence change, positive = activation (at 7.5 µM (top of the series)): -35.8% (inactive)"
Cc1ccc(Oc2ccc(S(=O)(=O)N3CCOCC3)cc2C(N)=O)c(-n2nc3ccccc3n2)c1,–,-22.3% (inactive),–
Cc1[nH][nH]c(=O)c1C(c1ccc(-c2ccc(Cl)c(Cl)c2)o1)c1c(C)[nH][nH]c1=O,–,7.43% (inactive),–
COc1ccccc1-c1nnc(SCc2ccccc2)o1,–,-10.8% (inactive),–
Cc1cc(NC(=O)CSc2nc(-c3ccco3)cc(C(F)(F)F)n2)no1,–,-25.7% (inactive),–
c1ccc(CSc2nnc(-c3ccccc3)o2)cc1,20.9 µM,–,–
COc1cccc(N2CCN(C(=O)c3ccc(CS(=O)c4ccc(C)cc4)o3)CC2)c1 (configuration not stated),–,8.11% (inactive),–
Nc1nc(=S)c2ncn([C@@H]3O[C@H](CO)[C@@H](O)[C@H]3O)c2[nH]1,–,97.3% (inactive),–
CCOc1ccc(S(=O)(=O)NCc2ccccn2)cc1NC(=O)c1ccccc1F,–,–,"luminescence change, positive = activation (at 7.5 µM (top of the series)): -35.8% (inactive)"
COc1ccc(-c2nnc(SCc3ccccc3)o2)cc1,> 30 µM (inactive),–,–
